Measurements published in patent US8445719B2, “Method of stabilizing heme protein and storage solution therefor” (priority 2007, dated 2013).

How the values were obtained:
[1] = molecular target: Hemoglobin (Homo sapiens, UniProt P68871+P69905); assay: Hemoglobin stabilization effect in storage solution, hemoglobin only (residual ratio by immunological measurement); settings: for Residual ratio, Hemoglobin: stored at 37° C. for 20 hours, pH 7.0 HEPES storage solution; for Stabilizing effect (in words): 0.001-0.050 mol/L
[2] = molecular target: Hemoglobin + feces sample (Homo sapiens, UniProt P68871+P69905); assay: Hemoglobin stabilization effect in storage solution, hemoglobin coexisting with feces sample (residual ratio by immunological measurement); settings: for Residual ratio, Hemoglobin + feces sample: stored at 37° C. for 20 hours, pH 7.0 HEPES storage solution; for Stabilizing effect (in words): 0.001-0.050 mol/L
[3] = molecular target: fecal human hemoglobin (Homo sapiens, UniProt P68871+P69905); settings: single use of EDTA
[4] = test solution of hemoglobin only, 37° C., 20 hours
[5] = test solution in which hemoglobin and feces coexist, 37° C., 20 hours

Sequence of Hemoglobin + feces sample (P69905 2-142 limits assumed): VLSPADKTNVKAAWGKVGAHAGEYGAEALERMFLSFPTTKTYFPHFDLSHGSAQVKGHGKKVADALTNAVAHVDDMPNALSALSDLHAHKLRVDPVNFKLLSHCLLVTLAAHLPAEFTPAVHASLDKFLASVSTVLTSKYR
Sequence of Hemoglobin + feces sample (P68871 2-147 limits assumed): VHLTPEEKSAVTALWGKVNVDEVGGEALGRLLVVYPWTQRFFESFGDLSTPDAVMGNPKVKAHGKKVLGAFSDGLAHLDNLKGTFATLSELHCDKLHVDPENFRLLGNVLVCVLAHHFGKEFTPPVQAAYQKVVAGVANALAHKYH
Sequence of Hemoglobin (P69905 2-142 limits assumed): as the sequence (P69905 2-142 limits assumed) above
Sequence of Hemoglobin (P68871 2-147 limits assumed): as the sequence (P68871 2-147 limits assumed) above
Sequence of fecal human hemoglobin (P69905 2-142 limits assumed): as the sequence (P69905 2-142 limits assumed) above
Sequence of fecal human hemoglobin (P68871 2-147 limits assumed): as the sequence (P68871 2-147 limits assumed) above

Row | Residual ratio, Hemoglobin ([1]; 0.001 mol/L agent added) | Residual ratio, Hemoglobin ([1]; 0.010 mol/L agent added) | Residual ratio, Hemoglobin ([1]; 0.050 mol/L agent added) | Residual ratio, Hemoglobin + feces sample ([2]; 0.001 mol/L agent added) | Residual ratio, Hemoglobin + feces sample ([2]; 0.010 mol/L agent added) | Residual ratio, Hemoglobin + feces sample ([2]; 0.050 mol/L agent added) | Stabilizing effect (in words) [1, 4] | SMILES | Stabilizing effect (in words) [2, 5] | other results
1 | 82.1% | 80.9% | 81.0% | 28.0% | 27.3% | 26.3% | slight stabilizing effect was observed | O=C(O)CNCC(=O)O [IDA, iminodiacetic acid] | any certain stabilizing effect was not observed | 
2 | 79.5% | 79.8% | 82.4% | 34.3% | 35.8% | 37.1% | slight stabilizing effect was observed | O=C(O)CN(CCN(CC(=O)O)CC(=O)O)CC(=O)O [EDTA, ethylenediamine-N,N,N′,N′-4 acetic acid] | slightly higher effect to stabilize hemoglobin was observed | Stabilizing action on fecal human hemoglobin (in words) [3]: sufficient stabilizing action on fecal human hemoglobin cannot be expected
3 | 80.3% | 79.3% | 81.6% | 26.1% | 26.4% | 27.3% | slight stabilizing effect was observed | O=C(O)CN(CCO)CC(=O)O [HIDA, N-(2-hydroxyethyl) iminodiacetic acid] | any certain stabilizing effect was not observed | 

Row | SMILES | Residual ratio, Hemoglobin ([1]; 0.001 mol/L agent added) | Residual ratio, Hemoglobin ([1]; 0.010 mol/L agent added) | Residual ratio, Hemoglobin ([1]; 0.050 mol/L agent added) | Residual ratio, Hemoglobin + feces sample ([2]; 0.001 mol/L agent added) | Residual ratio, Hemoglobin + feces sample ([2]; 0.010 mol/L agent added) | Residual ratio, Hemoglobin + feces sample ([2]; 0.050 mol/L agent added) | Stabilizing effect (in words) [1, 4] | Stabilizing effect (in words) [2, 5] | other results
4 | O=C([O-])CC(NC(C(=O)[O-])C(O)C(=O)[O-])C(=O)[O-].[Na+].[Na+].[Na+].[Na+] (centres unmarked) [HIDS, tetrasodium 3-hydroxy-2,2′-iminodisuccinate] | 82.8% | 84.2% | 84.1% | 28.8% | 39.2% | 50.8% |  |  | Residual ratio, Hemoglobin ([1]; 0.005 mol/L agent added): 83.9%; Residual ratio, Hemoglobin ([1]; 0.075 mol/L agent added): 85.2%; Residual ratio, Hemoglobin ([1]; 0.100 mol/L agent added): 87.8%; Residual ratio, Hemoglobin ([1]; 0.150 mol/L agent added): 88.2%; Residual ratio, Hemoglobin ([1]; 0.200 mol/L agent added): 86.2%; Concentration at which a stabilizing effect was observed [1, 4]: ≥ 0.001 mol/L; Residual ratio, Hemoglobin + feces sample ([2]; 0.005 mol/L agent added): 32.3%; Residual ratio, Hemoglobin + feces sample ([2]; 0.075 mol/L agent added): 53.9%; Residual ratio, Hemoglobin + feces sample ([2]; 0.100 mol/L agent added): 55.9%; Residual ratio, Hemoglobin + feces sample ([2]; 0.150 mol/L agent added): 57.8%; Residual ratio, Hemoglobin + feces sample ([2]; 0.200 mol/L agent added): 46.3%; Concentration at which the effect to stabilize hemoglobin was remarkable ([2]; 37° C., 20 hours): ≥ 0.050 mol/L; Concentration at which the stabilizing effect is observed [2, 5]: ≥ 0.005 mol/L
